Experiments:
[1] = system: Photinus pyralis (firefly) luciferase mRNA expression in spleen; test: Luciferase mRNA in vivo evaluation using LNP compositions, spleen; conditions: LNP 47.5:10:40.7:1.8, 1 mg/kg, mice
Method: (§1) Luciferase mRNA in vivo evaluation studies were performed in 6-8 week old female C57BL/6 mice (Charles River) 8-10 week old CD-1 (Harlan) mice (Charles River) according to guidelines established by an institutional animal care committee (ACC) and the Canadian Council on Animal Care (CCAC). Varying doses of mRNA-lipid nanoparticle were systemically administered by tail vein injection and animals euthanized at a specific time point (e.g., 4 hours) post-administration. Liver and spleen were collected in pre-weighed tubes, weights determined, immediately snap frozen in liquid nitrogen and stored at −80° C. until processing for analysis.
(§2) The FLuc mRNA (L-6107) from Trilink Biotechnologies will express a luciferase protein, originally isolated from the firefly, Photinus pyralis. FLuc is commonly used in mammalian cell culture to measure both gene expression and cell viability. It emits bioluminescence in the presence of the substrate, luciferin. This capped and polyadenylated mRNA is fully substituted with 5-methylcytidine and pseudouridine.
(§3) The effect of the proportion of mRNA to total lipid was investigated for a particular standard set of lipid proportions across three representative cationic lipids. LNP's were formulated by an in-line mixing process as described in Example 1. The lipid proportions were held constant at 47.5:10:40.7:1.8 for the cationic lipid, DSPC, Cholesterol and PEG-lipid respectively. The mRNA to lipid ratios are described in terms of the N/P ratio where N represents the moles of cationic lipid and P represents the moles of phosphate present as part of the nucleic acid backbone. Ratios described in this way are independent of the size of the nucleic acid. The size and polydispersity index data were generated using Malvern Nanosizer ZS. The diameters given are intensity weighted means. Encapsulation was determined using a fluorescent intercalating dye based assay (Ribogreen).

[2] = system: Photinus pyralis (firefly) luciferase mRNA expression in liver; test: Luciferase mRNA in vivo evaluation using LNP compositions, liver; conditions: LNP 47.5:10:40.7:1.8, 1 mg/kg, mice
Method: as §1
For liver, approximately 50 mg was dissected for analyses in a 2 mL FastPrep tubes (MP Biomedicals, Solon Ohio). ¼″ ceramic sphere (MP Biomedicals) was added to each tube and 500 μL of Glo Lysis Buffer—GLB (Promega, Madison Wis.) equilibrated to room temperature was added to liver tissue. Liver tissues were homogenized with the FastPrep24 instrument (MP Biomedicals) at 2×6.0 m/s for 15 seconds. Homogenate was incubated at room temperature for 5 minutes prior to a 1:4 dilution in GLB and assessed using SteadyGlo Luciferase assay system (Promega). Specifically, 50 μL of diluted tissue homogenate was reacted with 50 μL of SteadyGlo substrate, shaken for 10 seconds followed by 5 minute incubation and then quantitated using a CentroXS^3 LB 960 luminometer (Berthold Technologies, Germany). The amount of protein assayed was determined by using the BCA protein assay kit (Pierce, Rockford Ill.). Relative luminescence units (RLU) were then normalized to total μg protein assayed. To convert RLU to ng luciferase a standard curve was generated with QuantiLum Recombinant Luciferase (Promega). For a representative formulation having a combination of two cationic lipids, a four-hour time point was chosen for an efficacy evaluation of the lipid formulation.
as §2
LNP's were formulated by an in-line mixing process as described in Example 1. […] The size and polydispersity index data were generated using Malvern Nanosizer ZS. The diameters given are intensity weighted means. Encapsulation was determined using a fluorescent intercalating dye based assay (Ribogreen).

[3] = Encapsulation by fluorescent intercalating dye based assay (Ribogreen); assay type: physicochemical
Method: (§4) LNP's were formulated by an in-line mixing process as described in Example 1. These formulations were prepared such that the mRNA to cationic lipid ratio was held constant (N/P=6.3). The size and polydispersity index data were generated using Malvern Nanosizer ZS. The diameters given are intensity weighted means. Encapsulation was determined using a fluorescent intercalating dye based assay (Ribogreen). […]
as §3

[4] = Particle size and polydispersity index by light scattering (Malvern Zetasizer/Nanosizer ZS); assay type: physicochemical; conditions: LNP 47.5:10:40.7:1.8
Method: Cationic lipid(s), DSPC, cholesterol and PEG-lipid were solubilized in ethanol at a desired molar ratio (e.g., 50:0 to 10:28.5 to 38.5:1.5 to 1.7 or 47.5:10:40.8:1.7). Lipid nanoparticles (LNP) were prepared at a total lipid to mRNA weight ratio of approximately 10:1 to 30:1. The mRNA was diluted to 0.2 mg/mL in 10 to 50 mM citrate buffer, pH 4. Syringe pumps were used to mix the lipid solution (i.e., LNP components solubilized in ethanol) with the mRNA aqueous solution at a ratio of about 1:5 to 1:3 (vol/vol) with total flow rates above 15 mL/min. The ethanol was then removed and the external buffer replaced with PBS by dialysis. Finally, the lipid nanoparticles were filtered through a 0.2 μm pore sterile filter. Lipid nanoparticle particle size was 55-95 nm diameter, and in some instances approximately 70-90 nm as determined by quasi-elastic light scattering using a Malvern Zetasizer Nano ZS (Malvern, UK).
as §4, §3

[5] = Determination of pKa of formulated lipids (TNS fluorescence assay); assay type: physicochemical; conditions: lipids of Formula I, formulated in LNP cationic lipid/DSPC/cholesterol/PEG-lipid 50/10/38.5/1.5 mol % or cationic lipid alone
Method: As described elsewhere, the pKa of formulated cationic lipids is correlated with the effectiveness of LNPs for delivery of nucleic acids (see Jayaraman et al, Angewandte Chemie, International Edition (2012), 51(34), 8529-8533; Semple et al, Nature Biotechnology 28, 172-176 (2010)). A representative preferred range of pKa is ˜5 to ˜7. […] Lipid nanoparticles comprising of cationic lipid/DSPC/cholesterol/PEG-lipid (50/10/38.5/1.5 mol %) or a cationic lipid alone in PBS at a concentration of 0.4 mM total lipid are prepared using the in-line process as described in Example 1. TNS was prepared as a 100 μM stock solution in distilled water. Vesicles were diluted to 24 μM lipid in 2 mL of buffered solutions containing 10 mM HEPES, 10 mM MES, 10 mM ammonium acetate, 130 mM NaCl, where the pH ranged from 2.5 to 11. An aliquot of the TNS solution was added to give a final concentration of 1 μM and following vortex mixing fluorescence intensity was measured at room temperature in a SLM Aminco Series 2 Luminescence Spectrophotometer using excitation and emission wavelengths of 321 nm and 445 nm. A sigmoidal best fit analysis was applied to the fluorescence data and the pKa was measured as the pH giving rise to half-maximal fluorescence intensity.

[6] = N/P 3:1, LNP cationic lipid/DSPC/Cholesterol/PEG-lipid 47.5:10:40.7:1.8

SMILES | Spleen Luc Activity ([1]; N/P 3:1) | Spleen Luc Activity ([1]; N/P 6:1) | Spleen Luc Activity ([1]; N/P 12:1) | Spleen Luc Activity ([1]; N/P 22:1) | Liver Luc Activity ([2]; N/P 3:1) | Liver Luc Activity ([2]; N/P 6:1) | Liver Luc Activity ([2]; N/P 12:1) | Liver Luc Activity ([2]; N/P 22:1) | Encapsulation [3, 6] | Encapsulation ([3]; N/P 6:1, LNP 47.5:10:40.7:1.8) | Encapsulation ([3]; N/P 12:1, LNP 47.5:10:40.7:1.8) | Encapsulation ([3]; N/P 22:1, LNP 47.5:10:40.7:1.8) | PDI ([4]; N/P 3:1) | Size ([4]; N/P 3:1) | PDI ([4]; N/P 6:1) | Size ([4]; N/P 6:1) | PDI ([4]; N/P 12:1) | Size ([4]; N/P 12:1) | PDI ([4]; N/P 22:1) | Size ([4]; N/P 22:1) | further results
CCCCCCCCC(=O)N(CCCN(C)C)C(CCCCCCCCC(=O)OCC(CCCC)CCCCCC)CCCCCCCCC(=O)OCC(CCCC)CCCCCC (stereo not shown) [II-9] | 831 ng/g | 642 ng/g | 514 ng/g | 439 ng/g | 6727 ng/g | 12209 ng/g | 18330 ng/g | 12634 ng/g | 92% | 95% | 98% | 98% | 0.054 | 94 nm | 0.033 | 88 nm | 0.014 | 84 nm | 0.017 | 84 nm | 
CCCCCCCCCCCCC(CCCCCCCCCC)C(=O)OCCCCCCN(CCCCCCOC(=O)C(CCCCCCCCCC)CCCCCCCCCC)CCN(C)C (stereo not shown) [Compound I-39] |  |  |  |  |  |  |  |  |  |  |  |  |  |  |  |  |  |  |  |  | pKa [5]: 5.82
CCCCCCC(CCCC)C(=O)OCCCCCCCCCN(CCCO)CCCCCCCCCOC(=O)C(CCCC)CCCCCC (stereo not shown) [III-45] | 410 ng/g | 356 ng/g | 243 ng/g | 353 ng/g | 13308 ng/g | 15395 ng/g | 16596 ng/g | 16005 ng/g | 75% | 86% | 91% | 94% | 0.089 | 87 nm | 0.068 | 74 nm | 0.074 | 65 nm | 0.083 | 57 nm | 
CCCCCCCCC(CCCCCC)C(=O)OCCCCCCN(CCCCCCOC(=O)C(CCCCCC)CCCCCCCC)CCN(C)C (stereo not shown) [Compound I-5] | 188 ng/g | 236 ng/g | 184 ng/g | 247 ng/g | 7689 ng/g | 9509 ng/g | 12826 ng/g | 14538 ng/g | 94% | 96% | 98% | 99% | 0.072 | 86 nm | 0.028 | 81 nm | 0.026 | 75 nm | 0.039 | 81 nm | 

Source: patent publication US11712481B2, “Lipid nanoparticle formulations” (Acuitas Therapeutics, Inc., priority 2016, dated 2023)
